Laboratory results from patent US20210163451A1, “METHODS AND COMPOSITIONS FOR SUBSTITUTED 2,5-DIKETOPIPERAZINE ANALOGS” (University of Florida Research Foundation, Inc., priority 2018, published 2021).
Marks after values point to notes of the source that are not given here.

Columns and labels:
TxtB = TxtB substrate scope in TxtA/TxtB reactions; format: biochemical, S. scabies 87.22; set-up: key to TxtB substrate: +++++: Five ‘+’ represents the strong reactivity; ++++: The number of ‘+’ represents the reactivities of the enzymes to the substrate; +++: The number of ‘+’ represents the reactivities of the enzymes to the substrate; ++: The number of ‘+’ represents the reactivities of the enzymes to the substrate; +: one represent very weak reactivities
Procedure: Using the above strategy, it was determined that TxtB accepted only I-Trp among all 20 natural amino acids in the reaction (FIG. 2B, Table 1). When incubating with 15 I-Trp analogs with various substituents at α-position or C4, C5, C6 and C7 of I-Trp indole (Table 1), TxtB was able to use 4-F, 4-Me, 5-F, and 6-F-tryptophan as substrates in the DKP synthesis (Table 1). […] Indeed, the Micklefield group recently produced several thaxtomin analogs with C4-H, F, Cl, Br, or Me when expressing txtA/B in S. albus. The advanced understanding of substrate scopes of TxtA/B led to enzymatic creation of a library of 30 DKPs with 5 I-Trp analogs and 6 I-Phe analogs (FIG. 3C). The production of all DKPs were confirmed in HPLC analysis and verified in high resolution LC-MS analysis (Table 2).
(§1) TxtA/B reaction: 100 mM Tris-Cl (PH=8.0), 0.5 mM Nitro-L-tryptophan or L-tryptophan, 0.55 mM L-Phenylalanine, 3.2 μM txtA, 14.5 μM txtB, 2.5 mM ATP and 2 mM SAM in 100 μL reaction. 21° C. shaken with 400 rpm for 20 hours.
To probe the basis of chemical diversity of Thx DKP scaffold, next characterized was the substrate scopes of TxtA and TxtB. […] Bulkier aryl substituents decreased enzyme activity. […] From the modelled structure of TxtA adenylation (A) domain (FIG. 23), it was identified that Trp225 likely controls the binding of bulky L-Phe analogues. Indeed, the TxtA W225S mutant [Kries, H. et al. Angew. Chem. Int. Ed. Engl. […] We confirmed the product as p-azido-Thx D by HRMS, MS/MS, 1D and 2D NMR analysis (FIGS. 24-25). The substrate preference of TxtB was then assessed. […] Additionally, TxtB utilized 4F-L-, 5F-L-, 4Me-D,L- and 6F-D,L-Trp out of 15 L-Trp analogues carrying various substituents (Table 7) as substrates to synthesize desnitro dimethylated DKP analogues (FIG. 22). […] The tolerance to small modifications on L-Trp indole by TxtB agreed with a recent in vivo study by the Micklefield group [Winn, M. et al. Angew. Chem. Int. Ed. Engl. 2018 57:6830-6833]. […] Chem. Biol. 2018 14: 428-430].
(§2) The TxtA/B reaction solutions (100 μl) typically contained 100 mM Tris-Cl, pH 9.0, 0.5 mM amino acid substrates, 10 mM MgCl2, 2.5 mM ATP and 2 mM SAM. The reactions were initiated by adding 1.2 μM TxtA and 1.3 μM TxtB (final concentration) and incubated at 21° C. with shaking at 400 rpm. After 30 h, the reactions were terminated by mixing with 200 μl of methanol. Quenched solutions were centrifuged at 4° C., 16,000×g for 15 min and clear supernatants were collected and subjected to HPLC and LCMS analysis as detailed below. All experiments were repeated independently at least twice. The reaction solutions of TB14 and TxtA and TxtB were the same as those of TxtA and TxtB except the inclusion of 1.5 mM NAPDH, 0.75 mM NOC-5 and 11.1 μM TB14. The reactions were run for 30 h and the products were analyzed and quantitated as described above.

TxtA = TxtA substrate scope in TxtA/TxtB reactions; format: biochemical, S. scabies 87.22
Procedure: To explore whether TxtA/B are versatile to generate a library of thaxtomin D analogs, enzymes' substrate tolerance was then examined in the reactions. […] Subsequently, the substrate scope of TxtA with 17 I-Phe analogs was assessed with various substituents at α-position or C2, C3, and C4 of the aryl group (Table 1).
as §1
(§3) TB14 and txtA/B coupling reaction: 100 mM Tris-Cl (PH=8.0), 0.5 mM L-tryptophan, 0.55 mM L-Phenylalanine, 1.5 mM NAPDH, 0.75 mM NOC-5, 3.2 μM txtA, 14.5 μM txtB, 2.5 mM ATP, 2 mM SAM and 11.1 μM TB14 in 100 μL reaction. Opened to air, 21° C. shaken with 400 rpm for 30 hours.
(§4) To probe the basis of chemical diversity of Thx DKP scaffold, next characterized was the substrate scopes of TxtA and TxtB. […] Chem. Int. Ed. Engl. […] The substrate preference of TxtB was then assessed. […] Chem. Int. Ed. Engl. 2018 57:6830-6833]. […] Chem. Biol. 2018 14: 428-430].
as §2

radish seedlings = experiment: Herbicidal activity in radish seedling assay; format: in vivo; conditions: total seedling length after 7 days on agar, 0 to 2 μM, mean±SD (n=4)
Procedure: Established protocols were followed to quantitate thaxtomin herbicidal activity in radish seedling assay (Jiang, G. et al. Appl Environ Microbiol 2018 84:e00164-18). In brief, serial concentrations (0 to 2 μM) of thaxtomins in DMSO were added into 20 mL of 1.5% warm agar solution with gentle agitation to prepare agar plates. DMSO was included as the negative control. Radish seeds (Burpee) were surface disinfested, pregerminated and selected when the radicle was […] and just emerged from the seed coat. Six radish seedlings were equally located on the surface of each plate with root ends pointed to the same direction. Agar plates were covered, sealed with Parafilm. Seedlings in agar plates grew at room temperature under 14-16 h fluorescent light per day for 7 days, and total seedling lengths were then recorded. The longest and the shorted seedlings would be excluded from the data analysis. Percent inhibition relative to the mean growth response in negative control was then calculated. Dose-response curves were fit to a four-parameter logistic model, and I50 values were determined from these curves.

TxtA-W225S = TxtA-W225S mutant substrate scope in TxtA/TxtB reactions; format: biochemical, S. scabies 87.22; conditions: for substrate preference of TxtAW225S mutant: Example 1; for TxtA-W225S substrate: Table 1, Example 1; for TxtAW225S substrate: Table 7, Example 2
Procedure: The nitro group of thaxtomins is essential for herbicidal activity, and is installed by TxtE. […] NADPH, NOC-5 as NO donor and SAM were included in the reaction. […] To further expand the substrate scope of TxtA, Trp225 was mutated into Ser in TxtA.
as §1, §3, §4, §2

TB14, TxtA and TxtB = experiment: Conversion to nitro-DKPs in the reactions of TB14, TxtA and TxtB; format: biochemical; conditions: nitro-DKP product from the listed L-Phe and L-Trp analogues
[1] = test system: TB14, TCB14, TxtA and TxtB; experiment: Conversion to thaxtomin A analogues in the reactions of TB14, TCB14, TxtA and TxtB; format: biochemical; conditions: thaxtomin A analogue product from the listed L-Phe and L-Trp analogues
[2] = Example 1, TxtA/B reaction with 4-NO2-L-Trp as TxtB substrate
[3] = Example 2, reaction of TB14, TxtA and TxtB

N[C@@H](Cc1c[nH]c2ccc(F)cc12)C(=O)O [5F-Tryptophan, 5F-L-tryptophan]
TxtB substrate (TxtB; Table 1, Example 1): ++ | TxtB substrate (TxtB; Table 7, Example 2): ++

N[C@@H](Cc1ccc(Cl)cc1)C(=O)O [4Cl-L-phenylalanine]
TxtA substrate (TxtA; Table 1, Example 1): ++ | TxtA substrate (TxtA; Table 7, Example 2): +

N[C@@H](Cc1cccc(F)c1)C(=O)O [3F-L-phenylalanine]
relative activity of TxtA toward substrate, relative to L-Phe (TxtA; [2]): same level of activity | relative activity of TxtA toward substrate, relative to L-Phe (TxtA; [3]): equally active | TxtA substrate (TxtA; Table 1, Example 1): +++++ | TxtA substrate (TxtA; Table 7, Example 2): +++++

CN1C(=O)[C@H](Cc2c[nH]c3cccc([N+](=O)[O-])c23)N(C)C(=O)[C@@H]1Cc1ccc(N=[N+]=[N-])cc1 [p-N3-Thx D, p-N3-thaxtomin D]
IC50 (radish seedlings; Raphanus sativus, 168 h): 1290 ± 210 nM

[N-]=[N+]=Nc1ccc(C[C@H](N)C(=O)O)cc1 [4-Azidophenylalanine]
relative activity of TxtA toward substrate, relative to L-Phe (TxtA; [3]): did not accept | substrate preference of TxtAW225S mutant (TxtA-W225S): strong preference | substrate preference of TxtA W225S mutant (TxtA-W225S; Example 2, reaction with TB14, TxtA and TxtB): strong preference over L-Phe | TxtA-W225S substrate (TxtA-W225S): ++ | TxtAW225S substrate (TxtA-W225S): ++

CN1C(=O)[C@H](Cc2c[nH]c3cccc([N+](=O)[O-])c23)N(C)C(=O)[C@@H]1Cc1ccc(N=[N+]=[N-])cc1 [compound 42]
Conversion rate % (TxtA-W225S; catalyzed by TxtB and TxtAW225S (with TB14)): 20.90%

N[C@@H](Cc1ccc(O)cc1)C(=O)O [L-tyrosine]
substrate preference of TxtAW225S mutant (TxtA-W225S): lower activity | TxtA-W225S substrate (TxtA-W225S): ++

N[C@@H](Cc1c[nH]c2cccc([N+](=O)[O-])c12)C(=O)O [4-nitro-L-Tryptophan]
TxtB substrate (TxtB; Table 1, Example 1): +++++ | TxtB substrate (TxtB; Table 7, Example 2): +++++

N[C@@H](Cc1c[nH]c2cccc(F)c12)C(=O)O [4F--Tryptophan, 4F-L-tryptophan]
TxtB substrate (TxtB; Table 1, Example 1): + | TxtB substrate (TxtB; Table 7, Example 2): +

N[C@@H](Cc1ccc(F)cc1)C(=O)O [4F-L-phenylalanine]
relative activity of TxtA toward substrate, relative to L-Phe (TxtA; [2]): ~72% | TxtA substrate (TxtA; Table 1, Example 1): +++ | TxtA substrate (TxtA; Table 7, Example 2): ++

N[C@@H](Cc1c[nH]c2ccccc12)C(=O)O [L-tryptophan]
TxtB activity, times less active than 4-NO2-L-Trp (TxtB; Example 2, reaction without TB14): 12 times | TxtB substrate (TxtB; Table 1, Example 1): + | TxtB substrate (TxtB; Table 7, Example 2): +

Cc1ccc(C[C@H]2C(=O)N(C)[C@@H](Cc3c[nH]c4cccc([N+](=O)[O-])c34)C(=O)N2C)cc1 [4′Me-Thx D, 4′Me-thaxtomin D]
IC50 (radish seedlings; Raphanus sativus, 168 h): 480 ± 40 nM

N[C@@H](Cc1ccccc1Br)C(=O)O [2Br-L-phenylalanine]
TxtA substrate (TxtA; Table 1, Example 1): + | TxtA substrate (TxtA; Table 7, Example 2): +

Cc1cccc(C[C@H](N)C(=O)O)c1 [3Me-L-phenylalanine]
relative activity of TxtA toward substrate, relative to L-Phe (TxtA; [2]): about 12% | relative activity of TxtA toward substrate, relative to L-Phe (TxtA; [3]): about 27% | TxtA substrate (TxtA; Table 1, Example 1): ++ | TxtA substrate (TxtA; Table 7, Example 2): ++

Cc1ccc(C[C@H](N)C(=O)O)cc1 [4Me-L-phenylalanine]
TxtA substrate (TxtA; Table 1, Example 1): +++ | TxtA substrate (TxtA; Table 7, Example 2): +

N[C@@H](Cc1ccc(Br)cc1)C(=O)O [4Br-L-phenylalanine]
TxtA substrate (TxtA; Table 1, Example 1): + | TxtA substrate (TxtA; Table 7, Example 2): +

Cc1ccc(C[C@H]2C(=O)N(C)[C@@H](Cc3c[nH]c4cccc([N+](=O)[O-])c34)C(=O)N2C)cc1 [compound 54]
Conversion rate % (TB14, TxtA and TxtB): 15.69%

N[C@@H](Cc1cccc(Cl)c1)C(=O)O [3Cl-L-phenylalanine]
TxtA substrate (TxtA; Table 1, Example 1): ++ | TxtA substrate (TxtA; Table 7, Example 2): +

Cc1ccc(C[C@@]2(O)C(=O)N(C)[C@@H](Cc3c[nH]c4cccc([N+](=O)[O-])c34)C(=O)N2C)cc1O [compound 118]
Conversion rate % [1]: 3.98%

N[C@@H](Cc1ccccc1)C(=O)O [L-phenylalanine]
TxtA substrate (TxtA; Table 1, Example 1): +++++^a | TxtA substrate (TxtA; Table 7, Example 2): +++++ | TxtA-W225S substrate (TxtA-W225S): + | TxtAW225S substrate (TxtA-W225S): +

Cc1cccc2[nH]cc(CC3C(=O)N(C)C(Cc4ccccc4)C(=O)N3C)c12 (centres unmarked) [desnitro-4Me-Thx D]
IC50 (radish seedlings): 1980 ± 20 nM

Cc1ccc(C[C@@]2(O)C(=O)N(C)[C@@H](Cc3c[nH]c4cccc([N+](=O)[O-])c34)C(=O)N2C)cc1O [4′Me-Thx A, 4′Me-thaxtomin A]
IC50 (radish seedlings; Raphanus sativus, 168 h): 410 ± 10 nM

Cc1ccccc1C[C@H](N)C(=O)O [2Me-L-phenylalanine]
TxtA substrate (TxtA; Table 1, Example 1): +++ | TxtA substrate (TxtA; Table 7, Example 2): ++

N[C@@H](Cc1ccccc1F)C(=O)O [2F-L-phenylalanine]
relative activity of TxtA toward substrate, relative to L-Phe (TxtA; [2]): same level of activity | relative activity of TxtA toward substrate, relative to L-Phe (TxtA; [3]): ~73% | TxtA substrate (TxtA; Table 1, Example 1): ++++ | TxtA substrate (TxtA; Table 7, Example 2): ++++

CN1C(=O)[C@](O)(Cc2cccc(O)c2)N(C)C(=O)[C@@H]1Cc1c[nH]c2cccc([N+](=O)[O-])c12 [Compound 1, thaxtomin A, reference compound]
Conversion rate % [1]: 6.84% | IC50 (radish seedlings): 390 ± 30 nM

NC(Cc1c[nH]c2cc(F)ccc12)C(=O)O (racemic) [6F-Tryptophan, 6F-D,L-tryptophan]
TxtB substrate (TxtB; Table 1, Example 1): ++ | TxtB substrate (TxtB; Table 7, Example 2): +

N[C@@H](Cc1cccc(Br)c1)C(=O)O [3Br-L-phenylalanine]
TxtA substrate (TxtA; Table 1, Example 1): + | TxtA substrate (TxtA; Table 7, Example 2): +

Cc1cccc2[nH]cc(CC(N)C(=O)O)c12 (racemic) [4Me-D,L-Tryptophan]
TxtB substrate (TxtB; Table 1, Example 1): ++ | TxtB substrate (TxtB; Table 7, Example 2): +++
